Like-named read-outs stand apart in the source and are kept apart here.
Key:
[1] = Stability test (impurity contents by HPLC); type: physicochemical; details: for The impurity contents: HPLC; for Increase of the impurity contents: illuminating the samples for 10 days
Procedure: A sample of crystalline form A of compound (I) (100˜200 mg) was placed on a watching glass in the form of a thin layer (thickness ≤5 mm). The samples were exposed to the following conditions: high temperature (60±2° C.) for 10 days; high humidity (25±2° C., 90%±5% relative humidity) for 10 days; illumination condition (visible light 4500 lx±500 lx with ultraviolet light not lower than 0.7 W·h/m^2, 25±2° C., 60%±5% relative humidity) for 10 days; and room temperature (30±2° C., 65%±5% relative humidity) for 10 days, respectively. The impurity contents in the samples were determined at different time points (0, 5 and 10 days) by high performance liquid chromatography (HPLC), and the absorption peaks were normalized relative to the highest peak (corresponds to compound I) which is set to 100%.

[2] = Hygroscopicity test; type: physicochemical; details: p-toluenesulfonate; for Hygroscopicity (conclusion in words): from Table 6; for Hygroscopic capacity: 25±1° C.
Procedure: A glass weighing bottle equipped with a stopper was tarred and the weight was recorded as m1. Compound (I) in crystalline form A or amorphous form (about 1.0 g) was placed in the tared weighing bottle and capped with the stopper. The total weight was then recorded as m2. […] The weighing bottle capped with its stopper was weighed on day 5 and day 10 and the weight was recorded as m3.

[3] = Pharmacokinetics test in beagle dogs; type: in vivo; details: for AUC(0-inf) / Cmax / Tmax / half-life / AUC(0-t): dog, plasma, po, capsule by gavage; for AUC(0-t): read-out: AUC0-24 h
Procedure: The pharmacokinetic properties of amorphous Compound (I) or the crystalline form A of Compound (I) disclosed herein are assessed in beagle dogs. The LC/MS/MS system used in the analysis consists of an Agilent 1200 Series vacuum degasser, binary pump, well-plate autosampler, thermostatted column compartment, the Agilent G6430 Triple Quadrupole Mass Spectrometer with an electrosprayionization (ESI) source. Quantitative analysis was carried out using MRM mode. The parameters for MRM transitions are in the Table A.
An Agilent XDB-C18, 2.1×30 mm, 3.5 μM column was used for the analysis. 5 μL of the samples were injected. Analysis condition: The mobile phase was 0.1% formic acid in water (A) and 0.1% formic acid in methanol (B). The flow rate was 0.4 mL/min. And the gradient of Mobile phase was in the Table B.
Alternatively, an Agilent 6330 series LC/MS/MS spectrometer equipped with G1312A binary pumps, a G1367A autosampler and a G1314C UV detector were used in the analysis. An ESI source was used on the LC/MS/MS spectrometer. The analysis was done in positive ion mode as appropriate and the MRM transition for each analyte was optimized using standard solution. A Capcell MP-C18 100×4.6 mm I.D., […] column (Phenomenex, Torrance, Calif., USA) was used during the analysis. The mobile phase was 5 mM ammonia acetate, 0.1% MeOH in water (A): 5 mM ammonia acetate, 0.1% MeOH in acetonitrile (B) (70/30, v/v). The flow rate was 0.6 mL/min. Column was maintained at ambient temperature. 20 μL of the samples were injected.
[…] The blood samples (0.3 mL) were drawn at 0.25, 0.5, 1.0, 2.0, 3.0, 4.0, 6.0, 8.0, 12 and 24 hour time points or 0.083, 0.25, 0.5, 1.0, 2.0, 4.0, 6.0, 8.0 and 24 hour time points and centrifuged at 3,000 or 4000 rpm for 2 to 10 min. The plasma solutions were collected, and analyzed by LC/MS/MS as described above. The pharmacokinetic parameters were calculated according to non-compartment model using WinNonlin procedure.

[4] = high humidity (25±2° C., 90%±5% relative humidity), 0 day, p-toluenesulfonate
[5] = high humidity (25±2° C., 90%±5% relative humidity), 5 days, p-toluenesulfonate
[6] = high humidity (25±2° C., 90%±5% relative humidity), 10 days, p-toluenesulfonate
[7] = high temperature (60±2° C.), 0 day, p-toluenesulfonate
[8] = high temperature (60±2° C.), 5 days, p-toluenesulfonate
[9] = high temperature (60±2° C.), 10 days, p-toluenesulfonate
[10] = illuminating condition (visible light 4500 lx±500 lx with UV, 25±2° C., 60%±5% RH), 0 day, p-toluenesulfonate
[11] = illuminating condition (visible light 4500 lx±500 lx with UV, 25±2° C., 60%±5% RH), 5 days, p-toluenesulfonate
[12] = illuminating condition (visible light 4500 lx±500 lx with UV, 25±2° C., 60%±5% RH), 10 days, p-toluenesulfonate
[13] = room temperature (30±2° C., 65%±5% relative humidity), 0 day, p-toluenesulfonate
[14] = dose 10 mg/kg, grain size D90 22 μm
[15] = dose 9.7 mg/kg, grain size D90 32 μm

Row | Compound | The impurity contents [1, 4] [%] | The impurity contents [1, 5] [%] | The impurity contents [1, 6] [%] | The impurity contents [1, 7] [%] | The impurity contents [1, 8] [%] | The impurity contents [1, 9] [%] | The impurity contents [1, 10] [%] | The impurity contents [1, 11] [%] | The impurity contents [1, 12] [%] | The impurity contents [1, 13] [%] | Hygroscopic capacity ([2]; standing time 5 d) [%] | Hygroscopic capacity ([2]; standing time 10 d) [%] | other results
1 | Cc1c(C(=O)Nc2ccc(Oc3ccnc4cc(OCC(C)(C)O)ccc34)c(F)c2)c(=O)n(-c2ccccc2)n1C.Cc1ccc(S(=O)(=O)O)cc1 [Form A, N-(3-fluoro-4-((7-(2-hydroxy-2-methylpropoxy)quinolin-4-yl)oxy)phenyl)-1,5-dimethyl-3-oxo-2-phenyl-2,3-dihydro-1H-pyrazole-4-carboxamide p-toluenesulfonate] | 0.35 | 0.37 | 0.39 | 0.35 | 0.37 | 0.37 | 0.35 | 0.38 | 0.48 | 0.35 | 0.03 | 0.12 | Increase of the impurity contents ([1]; listed as crystalline form A of Compound (I), p-toluenesulfonate): 0.13%; Hygroscopicity (conclusion in words) ([2]; listed as crystalline form A of compound (I)): not hygroscopic; Exposure and bioavailability in vivo (conclusion in words) ([3]; Cmax, AUC0-24h and AUC0-∞ compared with amorphous Compound (I)): good exposure and bioavailability; AUC(0-inf) [3, 14]: 180000 ng·h/mL; Cmax [3, 14]: 6190 ng/mL; Tmax [3, 14]: 4 h; half-life [3, 14]: 25 h; AUC(0-t) [3, 14]: 131000 ng·h/mL
2 | Cc1c(C(=O)Nc2ccc(Oc3ccnc4cc(OCC(C)(C)O)ccc34)c(F)c2)c(=O)n(-c2ccccc2)n1C.Cc1ccc(S(=O)(=O)O)cc1 [Amorphous, N-(3-fluoro-4-((7-(2-hydroxy-2-methylpropoxy)quinolin-4-yl)oxy)phenyl)-1,5-dimethyl-3-oxo-2-phenyl-2,3-dihydro-1H-pyrazole-4-carboxamide p-toluenesulfonate] | 0.14 | 0.11 | 0.07 | 0.14 | 0.13 | 0.10 | 0.14 | 0.36 | 0.56 | 0.14 | 7.74 | 8.48 | Increase of the impurity contents ([1]; listed as amorphous Compound (I), p-toluenesulfonate): 0.42%; The impurity contents ([1]; room temperature (30±2° C., 65%±5% relative humidity), 5 days): 0.07%; The impurity contents ([1]; room temperature (30±2° C., 65%±5% relative humidity), 10 days): 0.07%; Hygroscopicity (conclusion in words) ([2]; listed as amorphous Compound (I)): hygroscopic; AUC(0-inf) [3, 15]: 55300 ng·h/mL; Cmax [3, 15]: 2640 ng/mL; Tmax [3, 15]: 3.33 h; half-life [3, 15]: 15 h; AUC(0-t) [3, 15]: 37300 ng·h/mL

— patent US9920033B2, “Crystalline form of a substituted quinoline compound and pharmaceutical compositions thereof” (Sunshine Lake Pharma Co., Ltd., priority 2015, dated 2018)
